ChEMBL document CHEMBL1201862, “PubChem BioAssay data set” (2004)
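Grown in 96-well plates, cells were treated for 48 hours with each compound at five concentrations. Insufficient inhibition: endpoint recorded as highest concentration tested. GI50 is the concentration that inhibits growth by half.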 Active and inactive are the calls of the source. Rule as the data show it: active = GI50 up to about 1.1 µM and inactive = higher.

Assays:
Assay in all cases: NCI tumour cell line growth inhibition, 48 h
K562 = system: K562
MOLT-4 = system: MOLT-4
SW-620 = system: SW-620
SF-539 = system: SF-539
CCRF-CEM = system: CCRF-CEM
SK-MEL-5 = system: SK-MEL-5
U-251 = system: U-251
HT-29 = system: HT-29
HCC 2998 = system: HCC 2998
CAKI-1 = system: CAKI-1
NCI-H522 = system: NCI-H522
SNB-19 = system: SNB-19

Measured: GI50

O=[N+]([O-])c1cc(Cl)ccc1OCc1ccccc1
inactive: K562 42.7 µM | MOLT-4 27.9 µM | SW-620 > 100 µM | SF-539 57.3 µM | CCRF-CEM 40.9 µM | SK-MEL-5 27.3 µM | U-251 42.2 µM | HT-29 29.6 µM | HCC 2998 > 100 µM

COC(=O)C1(C(=O)OC)CC2c3c(c4ccccc4n3C)CC(C1=O)N2Cc1ccccc1 (stereo not drawn)
inactive: CAKI-1 > 100 µM | K562 > 100 µM | MOLT-4 > 100 µM | SW-620 > 100 µM | NCI-H522 57.3 µM | SF-539 > 100 µM | CCRF-CEM > 100 µM | SK-MEL-5 > 100 µM | U-251 > 100 µM | SNB-19 > 100 µM | HT-29 > 100 µM | HCC 2998 > 100 µM

S=C(Nc1ccccc1)N(/N=C/C=C/c1ccccc1)c1nnc(-c2ccccc2)c(-c2ccccc2)n1
inactive: CAKI-1 50.7 µM | K562 36.6 µM | MOLT-4 32.3 µM | SW-620 > 100 µM | NCI-H522 27.2 µM | SF-539 35.7 µM | CCRF-CEM 51.2 µM | SK-MEL-5 30.8 µM | U-251 > 100 µM | SNB-19 > 100 µM | HT-29 99.1 µM | HCC 2998 76.7 µM

CC(=O)c1cccc(NC(=O)C(=O)C(C2OC(=O)c3ccccc32)[N+](=O)[O-])c1 (stereo not drawn)
inactive: CAKI-1 > 100 µM | K562 > 100 µM | MOLT-4 > 100 µM | SW-620 > 100 µM | SF-539 > 100 µM | CCRF-CEM > 100 µM | SK-MEL-5 > 100 µM | U-251 > 100 µM | SNB-19 > 100 µM | HT-29 > 100 µM | HCC 2998 > 100 µM

Cc1[nH]c2ccccc2c1C1Cc2ccccc2N1C(=O)/C=C/C(=O)O (stereo not drawn)
inactive: CAKI-1 > 100 µM | K562 > 100 µM | MOLT-4 > 100 µM | SW-620 > 100 µM | NCI-H522 > 100 µM | SF-539 > 100 µM | CCRF-CEM > 100 µM | SK-MEL-5 > 100 µM | U-251 > 100 µM | SNB-19 > 100 µM | HT-29 > 100 µM | HCC 2998 > 100 µM

Cc1ccc(NC(=O)CC(=O)n2nc(C)c(/N=N/c3ccccc3C(=O)O)c2C)cc1
inactive: CAKI-1 > 100 µM | K562 > 100 µM | MOLT-4 > 100 µM | SW-620 > 100 µM | NCI-H522 > 100 µM | SF-539 > 100 µM | CCRF-CEM > 100 µM | SK-MEL-5 > 100 µM | U-251 > 100 µM | SNB-19 > 100 µM | HT-29 > 100 µM | HCC 2998 > 100 µM
